Experimental data: patent publication US8324190B2, “Treatment of proliferative disorders with amino-substituted (E)-2,6- dialkoxystyryl 4-substituted benzylsulfones” (Temple University—Of The Commonwealth System of Higher …, priority 2002, dated 2012)

Key:
Assay in all cases: Tumor cell viability assay, Trypan blue exclusion
Type in all cases: cell-based
Details in all cases: cell viability after 96 hours
[1] = tested on: breast adenocarcinoma cell line BT-20
Method: (§1) BT-20 is an estrogen-unresponsive cell line. NIH/3T3 and HFL are normal murine and human fibroblasts, respectively. BT-20, DLD-1 and H157 were grown in Dulbecco's modified Eagle's medium (DMEM) containing 10% fetal bovine serum supplemented with penicillin and streptomycin. DU145 was cultured in RPMI with 10% fetal bovine serum containing penicillin and streptomycin. NIH3T3 and HFL cells were grown in DMEM containing 10% calf serum supplemented with penicillin and streptomycin. Cells were plated at density levels of 1.0×10^5 cells per well in six-well plates. Cell cultures were maintained at 37° C. in a humidified atmosphere of 5% CO2. Cells were treated with compounds of the invention at various concentrations. Cell viability was determined after 96 hours by the Trypan blue exclusion method. […] The number of viable cells remaining after 96 hours of treatment was determined using hemacytometer following trypan blue staining. The number of viable cells has been plotted as the percent of Vehicle treated (control) cells.

[2] = tested on: colorectal carcinoma cell line DLD-1
Method: as §1

[3] = tested on: non-small cell lung carcinoma cell line H157
Method: as §1

[4] = tested on: prostate carcinoma cell line DU-145
Method: as §1

Measured: IC50

COc1cc(OC)c(/C=C/S(=O)(=O)Cc2ccc(OC)c(S(=O)(=O)NCC(=O)O)c2)c(OC)c1 [Example 1, (E)-2,4,6-Trimethoxystyryl-3-(carboxymethylsulfamyl)-4-methoxybenzylsulfone]
< 10 µM: all assays above

COc1cc(OC)c(/C=C/S(=O)(=O)Cc2ccc(OC)c(NC(=O)CC(=O)O)c2)c(OC)c1 [Example 2, (E)-2,4,6-Trimethoxystyryl-3-(carboxyacetamido)-4-methoxy-benzylsulfone]
< 10 µM: all assays above

COc1cc(OC)c(/C=C/S(=O)(=O)Cc2ccc(OC)c(NC(=N)N)c2)c(OC)c1 [Example 3, (E)-2,4,6-Trimethoxystyryl-3-(guanidino)-4-methoxybenzyl-sulfone]
< 10 µM: all assays above

COc1cc(OC)c(/C=C/S(=O)(=O)Cc2ccc(OC)c(NCC(=O)O)c2)c(OC)c1 [Example 4, (E)-2,4,6-Trimethoxystyryl-3-(carboxymethylamino)-4-methoxy-benzylsulfone]
< 10 µM: all assays above

COc1cc(OC)c(/C=C/S(=O)(=O)Cc2ccc(OC)c(NC(=O)c3cc([N+](=O)[O-])cc([N+](=O)[O-])c3)c2)c(OC)c1 [Example 5, (E)-2,4,6-trimethoxystyryl-3-(3,5,dinitrobenzamido)-4-methoxy-benzylsulfone]
< 10 µM: all assays above

COc1cc(OC)c(/C=C/S(=O)(=O)Cc2ccc(OC)c(NC(=O)c3cc(N)cc(N)c3)c2)c(OC)c1 [Example 6, (E)-2,4,6-trimethoxystyryl-3-(3,5,diaminobenzamido)-4-methoxy-benzylsulfone]
< 10 µM: all assays above

COc1cc(OC)c(/C=C/S(=O)(=O)Cc2ccc(OC)c(NC(=O)CCl)c2)c(OC)c1 [Example 7, (E)-2,4,6-Trimethoxystyryl-3-(chloroacetamido)-4-methoxybenzyl-sulfone]
< 10 µM: all assays above

COc1cc(OC)c(/C=C/S(=O)(=O)Cc2ccc(OC)c(NC(=O)CN3CCN(C)CC3)c2)c(OC)c1 [Example 8]
< 10 µM: all assays above

COc1cc(OC)c(/C=C/S(=O)(=O)Cc2ccc(OC)c(NC(=O)c3ccccc3)c2)c(OC)c1 [Example 9, (E)-2,4,6-Trimethoxystyryl-3-(benzamido)-4-methoxybenzyl-sulfone]
< 10 µM: all assays above

COc1cc(OC)c(/C=C/S(=O)(=O)Cc2ccc(OC)c(NC(=O)c3ccc([N+](=O)[O-])cc3)c2)c(OC)c1 [Example 10, (E)-2,4,6-Trimethoxystyryl-3-(4-nitrobenzamido)-4-methoxy-benzylsulfone]
< 10 µM: all assays above

COc1cc(OC)c(/C=C/S(=O)(=O)Cc2ccc(OC)c(NC(N)=O)c2)c(OC)c1 [Example 16, (E)-2,4,6-Trimethoxystyryl-3-(ureido)-4-methoxybenzylsulfone]
< 10 µM: all assays above

CNc1cc(CS(=O)(=O)/C=C/c2c(OC)cc(OC)cc2OC)ccc1OC [Example 17, (E)-2,4,6-Trimethoxystyryl-3-(N-methylamino)-4-methoxybenzyl-sulfone]
< 10 µM: all assays above

COc1cc(OC)c(/C=C/S(=O)(=O)Cc2ccc(OC)c(NC(C)=O)c2)c(OC)c1 [Example 18, (E)-2,4,6-Trimethoxystyryl-3-(acetamido)-4-methoxybenzyl-sulfone]
< 10 µM: all assays above

COc1cc(OC)c(/C=C/S(=O)(=O)Cc2ccc(OC)c(NS(=O)(=O)c3ccc([N+](=O)[O-])cc3[N+](=O)[O-])c2)c(OC)c1 [Example 19, (E)-2,4,6-Trimethoxystyryl-3-(2,4-dinitrobenzenesulfamyl)-4-methoxybenzylsulfone]
< 10 µM: all assays above

COc1cc(OC)c(/C=C/S(=O)(=O)Cc2ccc(OC)c(NS(=O)(=O)c3ccc(N)cc3N)c2)c(OC)c1 [Example 20, (E)-2,4,6-Trimethoxystyryl-3-(2,4-diaminobenzenesulfamyl)-4-methoxybenzylsulfone]
< 10 µM: all assays above

COc1cc(OC)c(/C=C/S(=O)(=O)Cc2ccc(OC)c(NC(=O)CN(C)C)c2)c(OC)c1 [Example 21, (E)-2,4,6-trimethoxystyryl-3-(dimethylaminoacetamido)-4-methoxybenzylsulfone]
< 10 µM: all assays above

COc1cc(OC)c(/C=C/S(=O)(=O)Cc2ccc(OC)c(NC(C)C(=O)O)c2)c(OC)c1 (stereo not shown) [Example 22, (E)-2,4,6-trimethoxystyryl-3-[(1-carboxyethyl)amino]-4-methoxybenzylsulfone]
< 10 µM: all assays above

COc1cc(OC)c(/C=C/S(=O)(=O)Cc2ccc(OC)c(NC(=O)c3ccc(N4CCN(C)CC4)cc3)c2)c(OC)c1 [Example 23, (E)-2,4,6-trimethoxystyryl-3-[4-(4-methylpiperazin-1-yl)-benzamido]-4-methoxybenzylsulfone]
< 10 µM: all assays above

COc1cc(OC)c(/C=C/S(=O)(=O)Cc2ccc(OC)c(NC(=O)CO)c2)c(OC)c1 [Example 24, (E)-2,4,6-trimethoxystyryl-3-(hydroxyacetamido)-4-methoxy-benzylsulfone]
< 10 µM: all assays above

COc1cc(OC)c(/C=C/S(=O)(=O)Cc2ccc(OC)c(NC(=O)C[n+]3ccccc3)c2)c(OC)c1 [Example 25, (E)-2,4,6-trimethoxystyryl-3-(pyridinium-1-yl)acetamido-4-methoxybenzylsulfone]
< 10 µM: all assays above

COc1cc(OC)c(/C=C/S(=O)(=O)Cc2ccc(OC)c(NC(=O)COC(C)=O)c2)c(OC)c1 [Example 26, (E)-2,4,6-trimethoxystyryl-3-(acetoxyacetamido)-4-methoxy-benzylsulfone]
< 10 µM: all assays above

COc1cc(OC)c(/C=C/S(=O)(=O)Cc2ccc(OC)c(NC(=O)C(C)O)c2)c(OC)c1 (stereo not shown) [Example 27, (E)-2,4,6-Trimethoxystyryl-3-(2-hydroxypropionamido)-4-methoxy benzylsulfone]
< 10 µM: all assays above

CC[N+](CC)(CC)CC(=O)Nc1cc(CS(=O)(=O)/C=C/c2c(OC)cc(OC)cc2OC)ccc1OC [Example 28, (E)-2,4,6-trimethoxystyryl-3-(triethylammoniumacetamido)-4-methoxybenzylsulfone]
< 10 µM: all assays above

COc1cc(OC)c(/C=C/S(=O)(=O)Cc2ccc(OC)c(NC(=O)C[N+](CCO)(CCO)CCO)c2)c(OC)c1 [Example 29, (E)-2,4,6-trimethoxystyryl-3-[tri-(2-hydroxyethyl)ammonium]-acetamido-4-methoxybenzylsulfone]
< 10 µM: all assays above

COc1cc(OC)c(/C=C/S(=O)(=O)Cc2ccc(OC)c(NC(=O)C(C)(C)O)c2)c(OC)c1 [Example 30, (E)-2,4,6-trimethoxystyryl-3-(2-methyl-2-hydroxypropion-amido)-4-methoxybenzylsulfone]
< 10 µM: all assays above

COc1cc(OC)c(/C=C/S(=O)(=O)Cc2ccc(OC)c(NC(=O)C(C)(C)OC(C)=O)c2)c(OC)c1 [Example 31, (E)-2,4,6-trimethoxystyryl-3-(2-methyl-2-acetoxypropionamido)-4-methoxybenzyl-sulfone]
< 10 µM: all assays above

COc1cc(OC)c(/C=C/S(=O)(=O)Cc2ccc(OC)c(NC(=O)C(F)(F)F)c2)c(OC)c1 [Example 32, (E)-2,4,6-trimethoxystyryl-3-(trifluoroacetamido)-4-methoxy-benzylsulfone]
< 10 µM: all assays above

COc1cc(OC)c(/C=C/S(=O)(=O)Cc2ccc(OC)c(NS(=O)(=O)C(F)(F)F)c2)c(OC)c1 [Example 33, (E)-2,4,6-trimethoxystyryl-3-(trifluoromethanesulfonamido)-4-methoxy-benzylsulfone]
< 10 µM: all assays above
